# Assay results reported in patent publication US6500853B1, “Inhibitors of phospholipase enzymes” (Genetics Institute, LLC, priority 1998, dated 2002).
# Several values for one entry are separate records, joined by “and”; a condition that tells them apart may be missing. Equal values may be shown once.
# Key:
# [1] = test system: Rat Carrageenan-Induced Footpad Edema; assay: Rat Carrageenan-Induced Footpad Edema Test; format: in vivo, male Sprague Dawley rats; settings: footpad volume 3 hours after carrageenan; for inhibition in vivo at 5 mg/kg / inhibition in vivo at 2 mg/kg / inhibition in vivo at 10 mg/kg: Rattus norvegicus, 3 h, read-out: PERCENT INHIBITION; for inhibition in vivo at 5 mg/kg: iv; for inhibition in vivo at 2 mg/kg / inhibition in vivo at 10 mg/kg: po
# cPLA2 = molecular target: T1, cPLA2 (Homo sapiens, UniProt P47712); assay: Coumarin Assay (cPLA2 inhibition); format: biochemical; settings: for inhibition at 30 µM: CONCENTRATION 30 micromolar; for inhibition at 0.65 µM: CONCENTRATION 0.65 micromolar; for inhibition at 0.7 µM: CONCENTRATION 0.7 micromolar; for inhibition at 0.95 µM: CONCENTRATION 0.95 micromolar; for inhibition at 2.5 µM: CONCENTRATION 2.5 micromolar; for inhibition at 6.25 µM: CONCENTRATION 6.25 micromolar; for inhibition at 0.85 µM: CONCENTRATION 0.85 micromolar
# T1 sequence (P47712 1-749): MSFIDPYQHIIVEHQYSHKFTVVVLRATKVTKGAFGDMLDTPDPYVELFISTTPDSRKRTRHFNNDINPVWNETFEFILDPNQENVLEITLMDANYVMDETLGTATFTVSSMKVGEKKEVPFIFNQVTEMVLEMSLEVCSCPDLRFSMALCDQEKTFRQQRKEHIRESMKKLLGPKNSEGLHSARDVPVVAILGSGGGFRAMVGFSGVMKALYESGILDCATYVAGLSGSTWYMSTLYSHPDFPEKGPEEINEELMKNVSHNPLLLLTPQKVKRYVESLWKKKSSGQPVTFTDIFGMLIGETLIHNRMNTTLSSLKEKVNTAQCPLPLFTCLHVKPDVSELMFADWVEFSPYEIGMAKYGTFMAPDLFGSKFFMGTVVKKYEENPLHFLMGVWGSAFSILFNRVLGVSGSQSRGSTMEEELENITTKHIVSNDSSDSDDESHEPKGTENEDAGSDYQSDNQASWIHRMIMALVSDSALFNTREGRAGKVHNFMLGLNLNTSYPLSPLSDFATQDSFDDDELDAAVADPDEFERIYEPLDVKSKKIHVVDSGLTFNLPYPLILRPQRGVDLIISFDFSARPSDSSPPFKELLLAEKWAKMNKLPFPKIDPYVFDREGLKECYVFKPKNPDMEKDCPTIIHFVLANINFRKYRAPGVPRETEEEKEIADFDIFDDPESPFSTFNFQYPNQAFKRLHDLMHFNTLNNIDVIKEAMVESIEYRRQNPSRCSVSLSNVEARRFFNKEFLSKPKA
# In short: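 Percent inhibition at the stated concentration, from the rate of 460 nm emission rise (360 nm excitation) per minute. Reaction started by adding 4 μg enzyme to compound and 60 μM 7-hydroxycoumarinyl 6-heptenoate in Hepes buffer pH 7.5 with 1 mM EDTA.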
# [2] = CONCENTRATION 20 micromolar, read-out: PERCENT INHIBITION @
smiles,measurement,setting,value
"COc1cc(C(=O)O)ccc1Cc1cn(C(c2ccccc2)c2ccccc2)c2ccc(NS(C)(=O)=O)cc12 [Example 10, 4-({1-benzhydryl-5-[(methylsulfonyl)amino]-1H-indol-3-yl}methyl)-3-methoxybenzoic acid]",inhibition in vivo at 5 mg/kg,"[1]; IV, 5 mg/Kg",25.3%
same,inhibition at 20 µM,cPLA2; [2],50%
same,inhibition at 30 µM,cPLA2; read-out: PERCENT INHIBITION @,50%
same,inhibition at 33.5 µM,"cPLA2; CONCENTRATION 33.5 micromolar, read-out: PERCENT INHIBITION @",50%
same,inhibition at 40 µM,"cPLA2; CONCENTRATION 40 micromolar, read-out: PERCENT INHIBITION @",50%
same,inhibition at 45 µM,"cPLA2; CONCENTRATION 45 micromolar, read-out: PERCENT INHIBITION @",50%
"COc1cc(C(=O)O)ccc1Cc1cn(C(c2ccccc2)c2ccccc2)c2ccc(NC(=O)C3CCCC3)cc12 [Example 11, 4-({1-benzhydryl-5-[(cyclopentylcarbonyl)amino]-1H-indol-3-yl}methyl)-3-methoxybenzoic acid]",inhibition in vivo at 5 mg/kg,"[1]; IV, 5 mg/Kg",14%
same,inhibition at 10 µM,"cPLA2; CONCENTRATION 10 micromolar, read-out: PERCENT INHIBITION @",42%
same,inhibition at 12 µM,"cPLA2; CONCENTRATION 12 micromolar, read-out: PERCENT INHIBITION @",50%
same,inhibition at 12.5 µM,"cPLA2; CONCENTRATION 12.5 micromolar, read-out: PERCENT INHIBITION @",52%
same,inhibition at 20 µM,cPLA2; [2],36%
same,inhibition at 27.5 µM,"cPLA2; CONCENTRATION 27.5 micromolar, read-out: PERCENT INHIBITION @",50%
same,inhibition at 30 µM,cPLA2; read-out: PERCENT INHIBITION @,50%
same,inhibition at 37 µM,"cPLA2; CONCENTRATION 37 micromolar, read-out: PERCENT INHIBITION @",50%
"COc1cc(C(=O)O)ccc1Cc1cn(C(c2ccccc2)c2ccccc2)c2ccc(Br)cc12 [Example 13, 4-[(1-benzhydryl-5-bromo-1H-indol-3-yl)methyl]-3-methoxybenzoic acid]",inhibition in vivo at 2 mg/kg,"[1]; PO, 2 mg/Kg",26%
same,inhibition in vivo at 10 mg/kg,"[1]; PO, 10 mg/Kg",23.6%
same,inhibition at 0.39 µM,"cPLA2; CONCENTRATION 0.39 micromolar, read-out: PERCENT INHIBITION @",50%
same,inhibition at 0.4 µM,"cPLA2; CONCENTRATION 0.4 micromolar, read-out: PERCENT INHIBITION @",50%
same,inhibition at 0.48 µM,"cPLA2; CONCENTRATION 0.48 micromolar, read-out: PERCENT INHIBITION @",50%
same,inhibition at 0.55 µM,"cPLA2; CONCENTRATION 0.55 micromolar, read-out: PERCENT INHIBITION @",50%
same,inhibition at 0.6 µM,"cPLA2; CONCENTRATION 0.6 micromolar, read-out: PERCENT INHIBITION @",50%
same,inhibition at 0.65 µM,cPLA2; read-out: PERCENT INHIBITION @,50%
same,inhibition at 0.7 µM,cPLA2; read-out: PERCENT INHIBITION @,50%
same,inhibition at 0.75 µM,"cPLA2; CONCENTRATION 0.75 micromolar, read-out: PERCENT INHIBITION @",50%
same,inhibition at 0.95 µM,cPLA2; read-out: PERCENT INHIBITION @,50%
same,inhibition at 2.5 µM,cPLA2; read-out: PERCENT INHIBITION @,73%
same,inhibition at 6.25 µM,cPLA2; read-out: PERCENT INHIBITION @,81%
"COc1cc(C(=O)O)ccc1Cc1cn(C(c2ccccc2)c2ccccc2)c2ccc(F)cc12 [Example 14, 4-[(1-benzhydryl-5-fluoro-1H-indol-3-yl)methyl]-3-methoxybenzoic acid]",inhibition in vivo at 2 mg/kg,"[1]; PO, 2 mg/Kg",11.5%
same,inhibition in vivo at 10 mg/kg,"[1]; PO, 10 mg/Kg",8.14%
same,inhibition at 0.7 µM,cPLA2; read-out: PERCENT INHIBITION @,50%
same,inhibition at 0.95 µM,cPLA2; read-out: PERCENT INHIBITION @,50%
"COc1cc(C(=O)O)ccc1Cc1cn(C(c2ccccc2)c2ccccc2)c2ccc(C)cc12 [Example 15, 4-[(1-benzhydryl-5-methyl-1H-indol-3-yl)methyl]-3-methoxybenzoic acid]",inhibition in vivo at 2 mg/kg,"[1]; PO, 2 mg/Kg",7.05%
same,inhibition in vivo at 10 mg/kg,"[1]; PO, 10 mg/Kg",6.88%
same,inhibition at 0.65 µM,cPLA2; read-out: PERCENT INHIBITION @,50%
same,inhibition at 0.72 µM,"cPLA2; CONCENTRATION 0.72 micromolar, read-out: PERCENT INHIBITION @",50%
same,inhibition at 0.76 µM,"cPLA2; CONCENTRATION 0.76 micromolar, read-out: PERCENT INHIBITION @",50%
same,inhibition at 0.85 µM,cPLA2; read-out: PERCENT INHIBITION @,50%
same,inhibition at 6.25 µM,cPLA2; read-out: PERCENT INHIBITION @,90%
"COc1cc(C(=O)O)ccc1Cc1cn(C(c2ccccc2)c2ccccc2)c2cc3c(cc12)OCO3 [Example 16, 4-[(5-benzhydryl-5H-[1,3]dioxolo[4,5-f]indol-7-yl)methyl]-3-methoxybenzoic acid]",inhibition in vivo at 2 mg/kg,"[1]; PO, 2 mg/Kg",3.8%
same,inhibition in vivo at 10 mg/kg,"[1]; PO, 10 mg/Kg",15%
same,PERCENT INHIBITION @,cPLA2; CONCENTRATION 0.125 micromolar,61% and 71%
same,inhibition at 0.14 µM,"cPLA2; CONCENTRATION 0.14 micromolar, read-out: PERCENT INHIBITION @",50%
same,inhibition at 0.17 µM,"cPLA2; CONCENTRATION 0.17 micromolar, read-out: PERCENT INHIBITION @",50%
same,inhibition at 0.25 µM,"cPLA2; CONCENTRATION 0.25 micromolar, read-out: PERCENT INHIBITION @",69%
same,inhibition at 6.25 µM,cPLA2; read-out: PERCENT INHIBITION @,98%
"COc1cc(C(=O)O)ccc1Cc1cn(C(c2ccccc2)c2ccccc2)c2ccc(C#N)cc12 [Example 17, 4-[(1-benzhydryl-5-cyano-1H-indol-3-yl)methyl]-3-methoxybenzoic acid]",inhibition in vivo at 2 mg/kg,"[1]; PO, 2 mg/Kg",19.3%
same,inhibition in vivo at 10 mg/kg,"[1]; PO, 10 mg/Kg",34.5%
same,inhibition at 0.7 µM,cPLA2; read-out: PERCENT INHIBITION @,50%
same,inhibition at 0.8 µM,"cPLA2; CONCENTRATION 0.8 micromolar, read-out: PERCENT INHIBITION @",50%
same,inhibition at 0.85 µM,cPLA2; read-out: PERCENT INHIBITION @,50%
same,inhibition at 0.98 µM,"cPLA2; CONCENTRATION 0.98 micromolar, read-out: PERCENT INHIBITION @",50%
"COc1cc(C(=O)NS(=O)(=O)c2ccccc2C)ccc1Cc1cn(C(C)C)c2ccc(NC(=O)OC3CCCC3)cc12 [Example 24, Cyclopentyl N-{1-isopropyl-3-[2-methoxy-4-({[(2-methylphenyl)sulfonyl]amino}carbonyl)benzyl]-1H-indol-5-yl}carbamate]",inhibition in vivo at 5 mg/kg,"[1]; IV, 5 mg/Kg",8.33%
same,PERCENT INHIBITION @,cPLA2; CONCENTRATION 100 micromolar,50%
same,inhibition at 100 µM,"cPLA2; CONCENTRATION 100 micromolar, read-out: PERCENT INHIBITION @",42%
"COc1cc(C(=O)NS(=O)(=O)C(F)(F)F)ccc1Cc1cn(C(c2ccccc2)c2ccccc2)c2ccc(NC(=O)OC3CCCC3)cc12 [Example 26, Cyclopentyl N-{1-benzhydryl-3-[2-methoxy-4-({[(trifluoromethyl)sulfonyl]amino}carbonyl)benzyl]-1H-indol-5-yl}carbamate]",inhibition in vivo at 5 mg/kg,"[1]; IV, 5 mg/Kg",25.3%
same,inhibition at 2.4 µM,"cPLA2; CONCENTRATION 2.4 micromolar, read-out: PERCENT INHIBITION @",50%
same,inhibition at 2.5 µM,cPLA2; read-out: PERCENT INHIBITION @,50%
"COc1cc(C(=O)NS(C)(=O)=O)ccc1Cc1cn(C(c2ccccc2)c2ccccc2)c2ccc(NC(=O)OC3CCCC3)cc12 [Example 27, cyclopentyl N-[1-benzhydryl-3-(2-methoxy-4-{[(methylsulfonyl)amino]carbonyl}benzyl)-1H-indol-5-yl]carbamate]",inhibition in vivo at 5 mg/kg,"[1]; IV, 5 mg/Kg",6.48%
same,inhibition at 6 µM,"cPLA2; CONCENTRATION 6 micromolar, read-out: PERCENT INHIBITION @",50%
same,inhibition at 6.4 µM,"cPLA2; CONCENTRATION 6.4 micromolar, read-out: PERCENT INHIBITION @",50%
"COc1cc(C(=O)NS(=O)(=O)c2ccccc2Cl)ccc1Cc1cn(C(c2ccccc2)c2ccccc2)c2ccc(NC(=O)OC3CCCC3)cc12 [Example 28, cyclopentyl N-{1-benzhydryl-3-[4-({[(2-chlorophenyl)sulfonyl]amino}carbonyl)-2-methoxybenzyl]-1H-indol-5-yl}carbamate]",inhibition in vivo at 5 mg/kg,"[1]; IV, 5 mg/Kg",0.29%
same,inhibition at 4.2 µM,"cPLA2; CONCENTRATION 4.2 micromolar, read-out: PERCENT INHIBITION @",50%
same,inhibition at 4.4 µM,"cPLA2; CONCENTRATION 4.4 micromolar, read-out: PERCENT INHIBITION @",50%
COc1cc(C(=O)NS(=O)(=O)c2cccc3c(N(C)C)cccc23)ccc1Cc1cn(C(c2ccccc2)c2ccccc2)c2ccc(NC(=O)OC3CCCC3)cc12 [Example 30],PERCENT INHIBITION,"[1]; IV, 5 mg/Kg",13.89%
same,PERCENT INHIBITION,"[1]; PO, 2 mg/Kg",−0.11%
same,PERCENT INHIBITION,"[1]; PO, 10 mg/Kg",13.25%
same,PERCENT INHIBITION @,cPLA2; CONCENTRATION 8 micromolar,50%
same,PERCENT INHIBITION @,cPLA2; CONCENTRATION 20 micromolar,46%
same,PERCENT INHIBITION @,cPLA2; CONCENTRATION 21 micromolar,50%
same,PERCENT INHIBITION @,cPLA2; CONCENTRATION 24 micromolar,50%
